# Like-named read-outs stand apart in the source and are kept apart here.
# What was measured:
# [1] = ester bond, EDCI/HOBt/DIEA, DCM, 12.0 h
# [2] = target: KRAS G12V binding to BRAF (Homo sapiens (Human), UniProt P01116+P62937, G12V); experiment: KRAS-BRAF with CYPA (500 nM) interaction assay (TR-FRET), G12V; format: biochemical
# Outline: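 A TR-FRET assay measured how compound, in the presence of CYPA, disrupts binding of GMPPNP-loaded 6His-KRAS G12V to BRAF. The buffer contained 25 mM HEPES PH=7.4, 0.002% Tween20, 0.1% BSA, 100 mM NaCl, 5 mM MgCl2 and 10 μM GMPPNP. Compounds ran as a 16-point 3-fold dilution series from 10 μM for 3 hours.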
# [3] = target: T1, KRAS G12C-BRAF complex (Homo sapiens (Human), UniProt P01116+P62937, G12C); experiment: KRAS-BRAF with CYPA (500 nM) interaction assay (TR-FRET), G12C; format: biochemical
# T1 sequence (P01116-2 other isoform, or with tags, fused parts or gaps G12C): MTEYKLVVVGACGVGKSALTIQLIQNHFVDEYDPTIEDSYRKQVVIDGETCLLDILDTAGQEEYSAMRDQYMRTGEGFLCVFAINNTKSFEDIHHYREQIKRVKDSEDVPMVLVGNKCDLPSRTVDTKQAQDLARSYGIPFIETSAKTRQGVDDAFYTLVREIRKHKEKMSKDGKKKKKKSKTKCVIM
# T1 sequence (P62937 whole entry): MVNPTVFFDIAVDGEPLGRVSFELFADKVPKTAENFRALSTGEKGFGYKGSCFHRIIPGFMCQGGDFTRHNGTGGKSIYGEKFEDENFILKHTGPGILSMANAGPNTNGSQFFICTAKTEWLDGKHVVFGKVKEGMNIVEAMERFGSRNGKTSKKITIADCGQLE
# [4] = tested on: phosphorylation of ERK, KRAS G12D in AGS cells; experiment: pERK inhibition assay, KRAS G12D; format: cell-based, human; settings: Homo sapiens, 4 hours
# Outline: (§1)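 ERK phosphorylation is measured after 4 h of compound exposure in attached cells, using a colorimetric immunoassay on fixed, permeabilized monolayers. IC50 is derived by 4-parameter sigmoidal fitting.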
# [5] = tested on: cryopreserved suspension hepatocytes from human; experiment: Human hepatocyte stability assay; format: in vitro ADME; settings: for Clearance Category: human hepatocytes; for CL_hep (Human): human hepatocytes 1×10^6 cells/mL, 37° C.
# Description: The hepatocyte stability assay measures the rate of disappearance of a compound from incubations with cryopreserved suspension hepatocytes from human. Positive controls, including Midazolam, Raloxifene and Dextromethorphan, are included in every experiment. Incubations consist of […] tested compound and suspension of human hepatocytes (1×10^6 cells/mL) in supplemented Williams' E Medium with 10% FBS and 0.5% Penicillin-streptomycin. The hepatocyte suspension was incubated with intermittent shaking 900 rpm at 37° C., in a 5% CO2 incubator. The reaction was stopped by adding methanol containing internal standard (2 μM Tolbutamide) at 2, 10, 20, 40, 60 and 120 minutes after compound addition, depletion of the parent compound was monitored by LC-MS/MS analysis.
# [6] = tested on: phosphorylation of ERK, KRAS G12V in SW620; experiment: pERK inhibition assay, KRAS G12V; format: cell-based, human; settings: Homo sapiens, SW-620, SW620, 4 hours
# Outline: as §1
# [7] = target: KRAS G12D binding to BRAF (Homo sapiens (Human), UniProt P01116+P62937, G12D); experiment: KRAS-BRAF with CYPA (500 nM) interaction assay (TR-FRET), G12D; format: biochemical
# Sequence of KRAS G12D binding to BRAF (P01116-2 other isoform, or with tags, fused parts or gaps G12D): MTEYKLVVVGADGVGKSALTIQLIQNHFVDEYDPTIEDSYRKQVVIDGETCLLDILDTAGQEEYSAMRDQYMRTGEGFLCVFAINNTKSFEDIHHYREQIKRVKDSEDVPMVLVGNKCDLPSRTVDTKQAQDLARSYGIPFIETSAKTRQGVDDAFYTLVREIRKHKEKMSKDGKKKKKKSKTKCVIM
# Sequence of KRAS G12D binding to BRAF (P62937 whole entry): as the sequence (P62937 whole entry) above
# [8] = tested on: SW620 (ATCC-CCL-227); experiment: Cell viability assay, G12V (SW620); format: cell-based, human; settings: Homo sapiens, SW-620; KRAS cell viability, SW620, 72 hrs, Cell Counting Kit-8
# Outline: (§2)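 Seed NCI-H358 5,000/well, AGS and SW620 2,000/well; overnight. Compound, 0.5% DMSO final, 72 hrs. CCK-8 2 hrs, OD450–OD650. IC50: 4-parameter fit.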
# [9] = tested on: phosphorylation of ERK, KRAS G12C in NCJ-H358 cells; experiment: pERK inhibition assay, KRAS G12C; format: cell-based, human; settings: Homo sapiens, 4 hours
# Outline: as §1
# [10] = tested on: NCI-H358 (ATCC-CRL5807) cells; experiment: Cell viability assay, G12C (NCI-H358); format: cell-based, human; settings: Homo sapiens; KRAS cell viability, NCI-H358, 72 hrs, Cell Counting Kit-8
# Outline: as §2
# [11] = tested on: AGS (ATCC-CRL-1739) cells; experiment: Cell viability assay, G12D (AGS); format: cell-based, human; settings: Homo sapiens, KRAS cell viability, 72 hrs, Cell Counting Kit-8
# Outline: as §2
# [12] = target: T1, KRAS G12C-BRAF complex; experiment: KRAS G12C-BRAF NanoBit assay; format: cell-based; settings: HEK293 cells, 3 hours of incubation
# Description: This assay is to measure the ability of tested compounds in disruption of the KRAS G12C-BRAF complex at the cellular level, we established the NanoBit cellular assay in mammalian HEK293 (ATCC) cells.
# HEK293 cells were grown and maintained using DMEM medium (Thermo Fisher Scientific) with 10% fetal bovine serum and 1% penicillin/streptomycin. Both KRAS G12C and BRAF RBD were cloned into the NanoBit vectors ([…] vectors system, Promega) with the orientations SnmBit-KRAS G12C and BRAF RBD-LgBit, respectively, and co-transfected into HEK293 cells. Cells were then selected with 100 μg/mL Hygromycin B (10687010, Thermo Fisher) and Blasticidin (5 μg/mL) for 4 weeks to get the stable cell pool.
# On the day of the assay, 75 nL of compound solution was presented in a 384-well assay plate as a 16-point 3-fold dilution starting from a final concentration of 30 μM in DMSO. Then cells were seeded at 10,000 cells/25 μL/well in a 384-well plate. After 3 hours of incubation, 6 μL of volume of Nano-Glo® Live Cell Substrate (Promega) was added into each well. Monitor luminescence using ultra384 model in Envision at 20 minutes. Compounds that facilitate disruption of the KRAS G12C-BRAF RBD complex were identified as those eliciting a decrease of luminescence relative to DMSO control wells.
# Sequence of KRAS G12V binding to BRAF (P01116-2 other isoform, or with tags, fused parts or gaps G12V): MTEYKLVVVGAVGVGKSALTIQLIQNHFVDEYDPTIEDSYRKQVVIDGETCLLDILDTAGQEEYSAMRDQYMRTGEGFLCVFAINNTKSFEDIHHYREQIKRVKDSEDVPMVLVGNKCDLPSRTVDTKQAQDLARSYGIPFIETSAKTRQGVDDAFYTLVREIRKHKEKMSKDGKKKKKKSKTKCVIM
# Sequence of KRAS G12V binding to BRAF (P62937 whole entry): as the sequence (P62937 whole entry) above
SMILES,"ring closure, yield of all isomers ([1]; from CCn1c(-c2cc(N3CCOCC3)cnc2[C@H](C)OC)c(CC(C)(C)CO)c2cc(-c3csc(C[C@H](NC(=O)OC(C)(C)C)C(=O)N4CCC[C@@H](C(=O)O)N4)n3)c(F)cc21, 11.72 mM, 20.0 °C)","ring closure, yield of all isomers ([1]; from CO[C@@H](C)c1ncc(N2CCN(C(=O)OCc3ccccc3)CC2)cc1-c1c(CC(C)(C)CO)c2cc(-c3cc(C[C@H](NC(=O)OC(C)(C)C)C(=O)N4CCC[C@@H](C(=O)O)N4)cc(O[Si](C(C)C)(C(C)C)C(C)C)c3)c(F)cc2n1CC(F)(F)F, 8.33 mM, 15.0 °C)",IC50 [2],IC50 [3],IC50 [4],Clearance Category [5],CL_hep (Human) [5],IC50 [6],IC50 [7],IC50 [8],IC50 [9],IC50 [10],IC50 [11],IC50 [12]
CCn1c(-c2cc(N3CCOCC3)cnc2[C@H](C)OC)c2c3cc(c(F)cc31)-c1csc(n1)C[C@H](NC(=O)OC(C)(C)C)C(=O)N1CCC[C@H](N1)C(=O)OCC(C)(C)C2,49.1%,–,–,–,–,–,–,–,–,–,–,–,–,–
CO[C@@H](C)c1ncc(N2CCN(C(=O)OCc3ccccc3)CC2)cc1-c1c2c3cc(c(F)cc3n1CC(F)(F)F)-c1cc(cc(O[Si](C(C)C)(C(C)C)C(C)C)c1)C[C@H](NC(=O)OC(C)(C)C)C(=O)N1CCC[C@H](N1)C(=O)OCC(C)(C)C2,–,74.2%,–,–,–,–,–,–,–,–,–,–,–,–
"CO[C@@H](C)c1ncc(N2CCN(C)CC2)cc1-c1c2c3cc(c(F)cc3n1CC(F)(F)F)-c1csc(n1)C[C@H](NC(=O)[C@H](C(C)C)N1CC[C@@]3(CCN(C(=O)[C@H](F)Cl)C3)C1=O)C(=O)N1CCC[C@H](N1)C(=O)OCC(C)(C)C2 (atropisomer, axis not shown; (M)) [Example 4, (2S)-2-[(5R)-7-[(2R)-2-chloro-2-fluoro-acetyl]-1-oxo-2,7-diazaspiro[4.4]nonan-2-yl]-N-[(7S,13S)-24-fluoro-(20M)-20-[2-[(1S)-1-methoxyethyl]-5-(4-methylpiperazin-1-yl)-3-pyridyl]-17,17-dimethyl-8,14-dioxo-21-(2,2,2-trifluoroethyl)-15-oxa-4-thia-9,21,27,28-tetrazapentacyclo[17.5.2.1^2,5.1^9,13.0^22,26]octacosa-1(25),2,5(28),19,22(26),23-hexaen-7-yl]-3-methyl-butanamide]",–,–,> 10000 nM,122 nM,110 nM,low (CL_hep (mL/min/kg)<6.96 is low clearance),6.4 mL/min/kg,48 nM,4370 nM,635 nM,2 nM,2 nM,1280 nM,–
"CO[C@@H](C)c1ncc(N2CCN(C)CC2)cc1-c1c2c3cc(c(F)cc3n1CC(F)(F)F)-c1csc(n1)C[C@H](NC(=O)[C@H](C(C)C)N1CC[C@]3(CCN(C(=O)[C@H](F)Cl)C3)C1=O)C(=O)N1CCC[C@H](N1)C(=O)OCC(C)(C)C2 (atropisomer, axis not shown; (M)) [Example 5, (2S)-2-[(5S)-7-[(2R)-2-chloro-2-fluoro-acetyl]-1-oxo-2,7-diazaspiro[4.4]nonan-2-yl]-N-[(7S,13S)-24-fluoro-(20M)-20-[2-[(1S)-1-methoxyethyl]-5-(4-methylpiperazin-1-yl)-3-pyridyl]-17,17-dimethyl-8,14-dioxo-21-(2,2,2-trifluoroethyl)-15-oxa-4-thia-9,21,27,28-tetrazapentacyclo[17.5.2.1^2,5.1^9,13.0^22,26]octacosa-1(25),2,5(28),19,22(26),23-hexaen-7-yl]-3-methyl-butanamide]",–,–,–,–,48 nM,medium (16.24>CL_hep (mL/min/kg)>6.96 is medium clearance),12.5 mL/min/kg,26 nM,–,42 nM,2 nM,2 nM,2240 nM,–
"CO[C@@H](C)c1ncc(N2CCN(C)CC2)cc1-c1c2c3cc(c(F)cc3n1CC(F)(F)F)-c1csc(n1)C[C@H](NC(=O)[C@H](C(C)C)N1CCCC3(CCN(C(=O)[C@H](F)Cl)CC3)C1=O)C(=O)N1CCC[C@H](N1)C(=O)OCC(C)(C)C2 (atropisomer, axis not shown; (M)) [Example 6, (2S)-2-[9-[(2R)-2-chloro-2-fluoro-acetyl]-1-oxo-2,9-diazaspiro[5.5]undecan-2-yl]-N-[(7S,13S)-24-fluoro-(20M)-20-[2-[(1S)-1-methoxyethyl]-5-(4-methylpiperazin-1-yl)-3-pyridyl]-17,17-dimethyl-8,14-dioxo-21-(2,2,2-trifluoroethyl)-15-oxa-4-thia-9,21,27,28-tetrazapentacyclo[17.5.2.1^2,5.1^9,13.0^22,26]octacosa-1(25),2,5(28),19,22(26),23-hexaen-7-yl]-3-methyl-butanamide]",–,–,–,–,21 nM,medium (16.24>CL_hep (mL/min/kg)>6.96 is medium clearance),13.4 mL/min/kg,24 nM,–,21 nM,1 nM,1 nM,76 nM,–
"CO[C@@H](C)c1ncc(N2CCN(C)CC2)cc1-c1c2c3cc(c(F)cc3n1CC(F)(F)F)-c1csc(n1)C[C@H](NC(=O)[C@H](C(C)C)N1CCC3(CCN(C(=O)[C@H](F)Cl)CC3)C1=O)C(=O)N1CCC[C@H](N1)C(=O)OCC(C)(C)C2 (atropisomer, axis not shown; (M)) [Example 15, (2S)-2-[8-[(2R)-2-chloro-2-fluoro-acetyl]-1-oxo-2,8-diazaspiro[4.5]decan-2-yl]-N-[(7S,13S)-24-fluoro-(20M)-20-[2-[(1S)-1-methoxyethyl]-5-(4-methylpiperazin-1-yl)-3-pyridyl]-17,17-dimethyl-8,14-dioxo-21-(2,2,2-trifluoroethyl)-15-oxa-4-thia-9,21,27,28-tetrazapentacyclo[17.5.2.1^2,5.1^9,13.0^22,26]octacosa-1(25),2,5(28),19,22(26),23-hexaen-7-yl]-3-methyl-butanamide]",–,–,–,–,–,medium (16.24>CL_hep (mL/min/kg)>6.96 is medium clearance),10.9 mL/min/kg,–,–,771 nM,–,< 1 nM,3240 nM,32 nM
"CC(C)[C@@H](C(=O)N[C@H]1Cc2cc(O)cc(c2)-c2ccc3c(C(C)(C)C#N)cn(c3c2)CC(C)(C)COC(=O)[C@@H]2CCCN(N2)C1=O)N1CCC2(CN(C(=O)[C@H](F)Cl)C2)C1=O [RM44-A, reference compound]",–,–,> 10000 nM,779 nM,> 10000 nM,low (CL_hep (mL/min/kg)<6.96 is low clearance),<2.4 mL/min/kg,> 10000 nM,> 10000 nM,–,> 10000 nM,–,–,1150 nM

# Source: patent publication US20250206761A1, “HALOINDOLE MACROCYCLIC COMPOUNDS FOR THE TREATMENT OF CANCER” (Hoffmann-La Roche Inc., priority 2022, published 2025)
